Like-named read-outs stand apart in the source and are kept apart here.
Key:
[1] = system: human oral fluid-cell harvests; assay: cells; format: cell-based
[2] = system: peripheral inflammatory cells of oral fluid-cell harvests; format: cell-based, human
[3] = system: polymorphonuclear neutrophils; settings: cited from earlier work
[4] = system: granular masses and polymorphonuclear neutrophils; settings: cited from earlier work
myeloperoxidase = biological target: T1, myeloperoxidase (Homo sapiens, UniProt P05164); assay: NADH2-NDGA-myeloperoxidase spectrophotometric assay of sputum / oral fluid-cell harvest supernatant extracts; format: biochemical; settings: for IC50: read-out: concentration that produces fifty (50) percent inhibition of myeloperoxidase
T1 construct: Homogenates were centrifuged at 1,300×g for ten (10) minutes and the supernatant extracts were kept during the course of analysis; from tissue; host or cells: human sputum / oral fluid-cell harvest (neutrophil-rich) homogenate supernatants
T1 sequence (P05164 49-745): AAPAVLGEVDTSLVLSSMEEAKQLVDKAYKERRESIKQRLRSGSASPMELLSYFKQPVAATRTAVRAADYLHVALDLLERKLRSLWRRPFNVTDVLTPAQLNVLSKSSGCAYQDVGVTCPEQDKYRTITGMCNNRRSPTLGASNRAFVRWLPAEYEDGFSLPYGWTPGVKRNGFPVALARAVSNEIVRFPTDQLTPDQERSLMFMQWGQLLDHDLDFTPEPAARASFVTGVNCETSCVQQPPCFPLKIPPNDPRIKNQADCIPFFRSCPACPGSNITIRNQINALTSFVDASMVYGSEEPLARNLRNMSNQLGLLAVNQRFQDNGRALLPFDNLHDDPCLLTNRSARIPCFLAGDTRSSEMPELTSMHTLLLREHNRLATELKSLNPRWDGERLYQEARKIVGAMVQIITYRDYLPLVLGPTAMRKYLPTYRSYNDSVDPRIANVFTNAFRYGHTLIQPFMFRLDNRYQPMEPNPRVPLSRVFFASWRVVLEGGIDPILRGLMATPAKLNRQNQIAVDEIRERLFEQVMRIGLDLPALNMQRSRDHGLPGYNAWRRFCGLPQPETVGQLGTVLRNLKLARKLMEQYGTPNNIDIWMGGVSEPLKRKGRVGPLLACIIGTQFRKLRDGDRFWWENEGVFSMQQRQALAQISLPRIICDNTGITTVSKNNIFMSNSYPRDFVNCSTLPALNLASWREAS
Protocol: Aliquots of fresh human oral fluid-cell harvests as exemplified above or fresh human sputum collected by the donors over a twenty-four (24) hour period were disrupted employing either Ten Broeck glass homogenizers or the Virtis homogenizer. Homogenates were centrifuged at 1,300×g for ten (10) minutes and the supernatant extracts were kept during the course of analysis at zero degrees centigrade (0° C.). Other reactants were incubated at thirty-five degrees centigrade (35° C.). Reduced nicotinamide-adenine dinucleotide oxidase and norhydroguaiaretic acid-myeloperoxidase activities were followed at 340 mμ or (nm) employing the Beckman Model DU Spectrophotometer temperature regulated at thirty-five degrees centigrade (35° C.). All specific reactions were run as duplicate assays.
Although this oxidation was very small under the conditions of experiment, an interaction correction factor was determined and applied to all reduced nicotinamide-adenine dinucleotide-nordihydroguaiaretic acid-mycloperoxidase assay reactions.
The velocity constants for the myeloperoxidase reactions behaved and were computed in accord with zero order reaction kinetics. […] In most instances, the activities followed first order reaction kinetics for a short interval and then ceased abruptly. The latter may be due to the presence or accumulation of variable concentrations of an unidentified inhibitor or inhibitors in the supernatants. Since in all cases the oxidase activities were very slow relative to the myeloperoxidase activities, the difference in optical density over the course of the reactions (up to ten (10) minutes) for the oxidase system were computed in the same manner as the data for the rapid myeloperoxidase system. Thus, all velocity constants were expressed in μ Moles of reduced nicotinamide-adenine dinucleotide oxidized per minute per ml. of oral fluid-cell harvest or sputum. The small oxidase activities were applied as a correction factor in the computation of all myeloperoxidase velocity constants.
The pH optimum of the myeloperoxidase system was determined. When fresh nordihydroguaiaretic acid solutions were prepared and interaction rates with reduced nicotinamide-adenine dinucleotide were subtracted as controls from oral lavage and sputum supernatant myeloperoxidase activities, the net velocity constants were zero (0). On the other hand, five (5) hour old nordihydroguaiaretic acid solutions yielded optimal activities at approximately pH 7.4. Subsequent experiments uniformly were carried out at pH 7.0 using five (5) hour old solutions to minimize the rates of the auto oxidation of nordihydroguaiaretic acid and oxidation of reduced nicotinamide-adenine dinucleotide by nordihydroguaiaretic acid when employing alkaline pH's.

[5] = system: myeloperoxidase (verdoperoxidase); settings: cited from earlier work
[6] = Homo sapiens, read-out: inhibition of aerobic (d) glucose dependent metabolism
[7] = Homo sapiens, read-out: inhibition of anaerobic glucolysis
[8] = Homo sapiens, read-out: inhibition of aerobic endogenous metabolism
[9] = Homo sapiens, read-out: inhibition of anaerobic glucose metabolism
[10] = with added 0.024 Molar hydrogen peroxide

Molecule: CC=O [Acetaldehyde, acetaldehyde]
- inhibition at 100 µM [1, 6]: 25%
- inhibition at 1000 µM [1, 6]: 60%
- inhibition at 100 µM [1, 7]: 10%
- inhibition at 1000 µM [1, 7]: 30%

Molecule: C=CC=O [Acrolein, acrolein]
- inhibition at 1 µM [1, 6]: 49%
- inhibition at 2.5 µM [1, 6]: 81%
- inhibition at 1 µM [1, 8]: 48%
- inhibition at 2.5 µM [1, 8]: 66%
- inhibition at 10 µM [1, 9]: 18%
- inhibition at 25 µM [1, 9]: 43%
- peripheral inflammatory cell function [2]: impaired to virtual total loss of function

Molecule: OO [Hydrogen peroxide, hydrogen peroxide]
- inhibition of hydrogen peroxide-dependent nitro-blue tetrazolium reducing enzyme activity ([3]; 0.15 Molar hydrogen peroxide): totally
- inhibition of endogenous nitro-blue tetrazolium reducing enzyme activity in granular masses ([4]; 0.15 Molar hydrogen peroxide): 100%

Molecule: NO [Hydroxylamine, hydroxylamine]
- IC50 (myeloperoxidase; supernatant extracts): 0.33 mM
- inhibition of hydrogen peroxide-dependent nitro-blue tetrazolium reducing enzyme activity [3, 10]: inhibited markedly
- inhibition of endogenous reactions in polymorphonuclear neutrophils and granular masses [4]: not inhibited
- inhibition of myeloperoxidase activity ([5]; Agner 1941, 1958): inhibited

Molecule: [O]N=O [Nitrogen dioxide, nitrogen dioxide]
- inhibition of aerobic metabolism [1]: variable and, at times, doubtful inhibitions
- peripheral inflammatory cell function [2]: enhanced peripheral inflammatory cell function

Molecule: [F-].[Na+] [Sodium Flouride, sodium fluoride]
- IC50 (myeloperoxidase): 63 mM
- inhibition of myeloperoxidase activity [5]: inhibited

Molecule: [Cu+2] [cupric ion]
- inhibition of exogenous hydrogen peroxide-dependent reaction in polymorphonuclear neutrophils ([3]; low concentrations): inhibited completely
- inhibition of endogenous reactions in granular masses and polymorphonuclear neutrophils ([4]; low concentrations): inhibited completely

Molecule: O=C(O)CI [iodoacetate]
- inhibition of exogenous hydrogen peroxide-dependent reaction in polymorphonuclear neutrophils [3]: inhibited completely
- inhibition of endogenous reactions in granular masses and polymorphonuclear neutrophils [4]: inhibited completely

Molecule: nitric oxide [Nitrogen oxide]
- influence on metabolism [1]: did not influence
- influence on cell function [2]: did not influence

B1: crystalline catalase (protein, UniProt P00432 2-527, looked up)
Catalase: ADNRDPASDQMKHWKEQRAAQKPDVLTTGGGNPVGDKLNSLTVGPRGPLLVQDVVFTDEMAHFDRERIPERVVHAKGAGAFGYFEVTHDITRYSKAKVFEHIGKRTPIAVRFSTVAGESGSADTVRDPRGFAVKFYTEDGNWDLVGNNTPIFFIRDALLFPSFIHSQKRNPQTHLKDPDMVWDFWSLRPESLHQVSFLFSDRGIPDGHRHMNGYGSHTFKLVNANGEAVYCKFHYKTDQGIKNLSVEDAARLAHEDPDYGLRDLFNAIATGNYPSWTLYIQVMTFSEAEIFPFNPFDLTKVWPHGDYPLIPVGKLVLNRNPVNYFAEVEQLAFDPSNMPPGIEPSPDKMLQGRLFAYPDTHRHRLGPNYLQIPVNCPYRARVANYQRDGPMCMMDNQGGAPNYYPNSFSAPEHQPSALEHRTHFSGDVQRFNSANDDNVTQVRTFYLKVLNEEQRKRLCENIAGHLKDAQLFIQKKAVKNFSDVHPEYGSRIQALLDKYNEEKPKNAVHTYVQHGSHLSAREKANL
- inhibition of myeloperoxidase activity (myeloperoxidase; 14 units of crystalline catalase added): ~50%
- inhibition of myeloperoxidase activity (myeloperoxidase; 41 units of crystalline catalase added): ~90%
- inhibition of hydrogen peroxide-dependent nitro-blue tetrazolium reducing enzyme activity [3, 10]: inhibited markedly
- inhibition of endogenous reactions in polymorphonuclear neutrophils and granular masses [4]: not inhibited
